{
  "source": "patent US20200246317A1",
  "about": "“METHODS OF TREATING DIABETIC NEUROPATHY WITH A THIAZOLINE ANTI-HYPERALGESIC AGENT” (CERSCI THERAPEUTICS, INC., priority 2019, published 2020)",
  "key": {"[1]": {"experiment": "Chemical-based assays of peroxynitrite (PN) oxidation (luminol)", "format": "biochemical"}, "[2]": {"experiment": "Stability of dose formulations for in vitro genetic toxicology assays", "format": "physicochemical", "settings": "0.001 to 50 mg/mL", "protocol": "In addition, formulation analysis for in vitro genetic toxicology studies was performed using a validated HPLC/UV analytical method (2750-001-001 Dose Formulation Method No. 2) with linearity over a range of 0.001 to 50 mg/mL. Dose formulations for in vitro assays were stable at room temperature for up to 1 day and when stored frozen at −20° C. for up to 45 days."}},
  "note": "Counter-ions that a name gives are not always drawn.",
  "data": [
    {"smiles": "CC1(C)SC(Nc2ccccc2O)=N[C@@H]1C(=O)O", "note": "[Compound 1, (R)-2-(2-hydroxyphenylamino)-5,5-dimethyl-4,5-dihydrothiazole-4-carboxylic acid mono-hydrochloride]", "values": [
      {"measurement": "PN-mediated oxidation of small-molecule organic substrates such as luminol", "setting": "[1]", "value": "inhibits PN-mediated oxidation"},
      {"measurement": "stability of dose formulations for in vitro assays, time stable", "setting": "[2]; room temperature", "value": "up to 1 day"},
      {"measurement": "stability of dose formulations for in vitro assays, time stable", "setting": "[2]; stored frozen at −20° C.", "value": "up to 45 days"}
    ]}
  ]
}
